# Measurements: ChEMBL document CHEMBL1250454, “Oral oxytocin antagonists” (J Med Chem, 2010)
# How the values were obtained:
# [1] = system: Rattus norvegicus; assay: Inhibition of oxytocin-induced uterine contraction in intraduodenally dosed rat; assay type: functional
# [2] = system: Rattus norvegicus; assay: Inhibition of oxytocin-induced uterine contraction in iv dosed rat; assay type: functional
# [3] = Oral bioavailability in rhesus monkey; assay type: ADME, organism-based, Macaca mulatta; details: in vivo
# [4] = target: T1, Vasopressin V2 receptor (Homo sapiens, UniProt P30518); assay: Displacement of [3H]vasopressin from human vasopressin V2 receptor
# [5] = target: T2, Vasopressin V1b receptor (Homo sapiens, UniProt P47901); assay: Displacement of [3H]vasopressin from human vasopressin V1b receptor
# T2 sequence (P47901 whole entry): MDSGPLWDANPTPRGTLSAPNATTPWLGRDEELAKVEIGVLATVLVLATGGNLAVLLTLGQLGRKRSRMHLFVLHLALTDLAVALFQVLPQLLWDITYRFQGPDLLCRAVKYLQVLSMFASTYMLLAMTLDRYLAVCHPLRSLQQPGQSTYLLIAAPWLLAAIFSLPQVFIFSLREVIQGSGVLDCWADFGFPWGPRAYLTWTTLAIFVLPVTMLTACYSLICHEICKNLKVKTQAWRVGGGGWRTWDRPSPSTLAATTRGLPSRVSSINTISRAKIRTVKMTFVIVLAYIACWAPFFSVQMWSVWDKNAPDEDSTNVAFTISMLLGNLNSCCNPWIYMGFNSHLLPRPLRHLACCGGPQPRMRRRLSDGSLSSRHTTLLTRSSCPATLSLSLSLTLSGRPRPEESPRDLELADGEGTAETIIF
# [6] = target: T3, Vasopressin V1a receptor (Homo sapiens, UniProt P37288); assay: Displacement of [3H]vasopressin from human vasopressin V1a receptor
# [7] = species on record: Homo sapiens; assay: Selectivity ratio of Ki for human oxytocin receptor Ki for human vasopressin V1b receptor
# [8] = species on record: Homo sapiens; assay: Selectivity ratio of Ki for human oxytocin receptor Ki for human vasopressin V1a receptor
# [9] = species on record: Homo sapiens; assay: Selectivity ratio of Ki for human oxytocin receptor Ki for human vasopressin V2 receptor
# [10] = target: T4, Oxytocin receptor (Homo sapiens, UniProt P30559); assay: Displacement of [3H]-oxytocin from oxytocin receptor in human uterus tissue; assay type: tissue-based
# T4 sequence (P30559 whole entry): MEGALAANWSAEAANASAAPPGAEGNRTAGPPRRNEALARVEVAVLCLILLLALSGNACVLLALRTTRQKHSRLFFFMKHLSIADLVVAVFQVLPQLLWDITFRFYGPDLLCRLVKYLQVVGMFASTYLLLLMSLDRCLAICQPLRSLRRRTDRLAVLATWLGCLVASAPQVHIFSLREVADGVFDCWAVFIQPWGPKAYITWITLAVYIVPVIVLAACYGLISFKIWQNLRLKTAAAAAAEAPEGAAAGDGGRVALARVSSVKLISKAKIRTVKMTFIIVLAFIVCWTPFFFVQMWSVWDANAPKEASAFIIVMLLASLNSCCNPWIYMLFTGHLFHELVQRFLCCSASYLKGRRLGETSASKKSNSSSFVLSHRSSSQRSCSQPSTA
# [11] = target: T5, Vasopressin V1a receptor (Rattus norvegicus, UniProt P30560); assay: Displacement of [3H]vasopressin from vasopressin V1a receptor in rat liver tissue
# [12] = target: T6, Vasopressin V2 receptor (Rattus norvegicus, UniProt Q00788); assay: Displacement of [3H]vasopressin from vasopressin V2 receptor in rat kidney tissue
# [13] = target: T2, Vasopressin V1b receptor; assay: Displacement of [3H]vasopressin from human vasopressin V1b receptor expressed in CHO cells; assay type: cell-based
# [14] = system: Rattus norvegicus; assay: Inhibition of oxytocin-induced uterine contraction in iv dosed non-pregnant anaesthetized rat; assay type: functional
# [15] = system: Rattus norvegicus; assay: Inhibition of oxytocin-induced uterine contraction in long-term pregnant anaesthetized rat at 30 mg/kg, po; assay type: functional; details: read-out: INH
# [16] = system: Rattus norvegicus; assay: Inhibition of oxytocin-induced uterine contraction in non-pregnant anaesthetized rat at 30 mg/kg, po; assay type: functional
# [17] = target: T1, Vasopressin V2 receptor; assay: Displacement of [3H]vasopressin from human vasopressin V2 receptor expressed in CHO cells; assay type: cell-based
# [18] = target: T7, Oxytocin receptor (Rattus norvegicus, UniProt P70536); assay: Antagonist activity at oxytocin receptor in rat uterine strips assessed as inhibition of oxytocin-induced contraction; assay type: functional; details: read-out: pA2 (converted)
# T7 sequence (P70536 whole entry): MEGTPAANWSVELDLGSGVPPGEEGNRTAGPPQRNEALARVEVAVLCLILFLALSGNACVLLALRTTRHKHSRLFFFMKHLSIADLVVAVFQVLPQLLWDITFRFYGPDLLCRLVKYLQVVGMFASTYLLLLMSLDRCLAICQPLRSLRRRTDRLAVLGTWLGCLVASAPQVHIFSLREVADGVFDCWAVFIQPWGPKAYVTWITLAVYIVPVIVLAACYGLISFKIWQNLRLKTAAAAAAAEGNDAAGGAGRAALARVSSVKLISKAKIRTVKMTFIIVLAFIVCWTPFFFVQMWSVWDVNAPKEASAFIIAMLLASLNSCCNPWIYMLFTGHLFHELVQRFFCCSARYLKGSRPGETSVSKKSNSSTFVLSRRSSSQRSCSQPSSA
# [19] = target: T3, Vasopressin V1a receptor; assay: Displacement of [3H]vasopressin from human vasopressin V1a receptor expressed in CHO cells; assay type: cell-based
# [20] = target: T7, Oxytocin receptor; assay: Displacement of [3H]-oxytocin from rat oxytocin receptor expressed in CHO cells; assay type: cell-based
# [21] = target: T5, Vasopressin V1a receptor; assay: Displacement of [3H]vasopressin from rat vasopressin V1a receptor in liver tissue
# [22] = target: T6, Vasopressin V2 receptor; assay: Displacement of [3H]vasopressin from rat vasopressin V2 receptor in kidney tissue
# [23] = target: T4, Oxytocin receptor; assay: Displacement of [3H]-oxytocin from human oxytocin receptor expressed in CHO cells; assay type: cell-based
# [24] = target: T1, Vasopressin V2 receptor; assay: Displacement of [3H]vasopressin from vasopressin V2 receptor in human kidney tissue
# [25] = target: T3, Vasopressin V1a receptor; assay: Displacement of [3H]vasopressin from vasopressin V1a receptor in human liver tissue
# [26] = target: T7, Oxytocin receptor; assay: Displacement of [3H]-oxytocin from oxytocin receptor in rat uterus tissue; assay type: tissue-based
# [27] = Aqueous solubility of the compound at pH 5; assay type: physicochemical
# [28] = target: T7, Oxytocin receptor; assay: Displacement of [3H]-oxytocin from rat oxytocin receptor expressed in HEK293-EBNA cells; assay type: cell-based
# [29] = Oral bioavailability in chimpanzee; assay type: ADME, organism-based, Pan troglodytes; details: in vivo
# [30] = system: Homo sapiens; assay: Toxicity in human assessed as tolerated dosed; assay type: organism-based; details: in vivo
# [31] = Clearance in dog; assay type: ADME, organism-based, Canis lupus familiaris; details: in vivo
# [32] = Clearance in rat; assay type: ADME, organism-based; details: in vivo
# [33] = Half life in human; assay type: ADME, organism-based; details: in vivo
# [34] = Solubility of the compound at pH 7.4; assay type: physicochemical; details: buffer
# [35] = Oral bioavailability in human; assay type: ADME, organism-based; details: in vivo
# [36] = Clearance in human; assay type: ADME, organism-based; details: in vivo
# [37] = Aqueous solubility of the compound at pH 5.2; assay type: physicochemical; details: buffer
# [38] = Oral bioavailability in rat; assay type: ADME, organism-based; details: in vivo
# [39] = Oral bioavailability in dog; assay type: ADME, organism-based, Canis lupus familiaris; details: in vivo
# T5 sequence (P30560 whole entry): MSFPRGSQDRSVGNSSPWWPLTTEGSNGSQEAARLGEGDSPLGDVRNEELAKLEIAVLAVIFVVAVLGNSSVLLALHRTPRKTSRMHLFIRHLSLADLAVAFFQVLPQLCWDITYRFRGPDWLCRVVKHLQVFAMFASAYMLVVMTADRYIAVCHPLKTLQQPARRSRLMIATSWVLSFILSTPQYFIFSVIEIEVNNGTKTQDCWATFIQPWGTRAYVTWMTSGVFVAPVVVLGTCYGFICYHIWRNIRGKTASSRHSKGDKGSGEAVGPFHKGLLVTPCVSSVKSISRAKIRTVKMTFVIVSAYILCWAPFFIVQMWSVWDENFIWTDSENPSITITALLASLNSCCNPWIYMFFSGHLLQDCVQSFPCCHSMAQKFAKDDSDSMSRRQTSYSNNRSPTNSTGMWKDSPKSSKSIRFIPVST
# T3 sequence (P37288 whole entry): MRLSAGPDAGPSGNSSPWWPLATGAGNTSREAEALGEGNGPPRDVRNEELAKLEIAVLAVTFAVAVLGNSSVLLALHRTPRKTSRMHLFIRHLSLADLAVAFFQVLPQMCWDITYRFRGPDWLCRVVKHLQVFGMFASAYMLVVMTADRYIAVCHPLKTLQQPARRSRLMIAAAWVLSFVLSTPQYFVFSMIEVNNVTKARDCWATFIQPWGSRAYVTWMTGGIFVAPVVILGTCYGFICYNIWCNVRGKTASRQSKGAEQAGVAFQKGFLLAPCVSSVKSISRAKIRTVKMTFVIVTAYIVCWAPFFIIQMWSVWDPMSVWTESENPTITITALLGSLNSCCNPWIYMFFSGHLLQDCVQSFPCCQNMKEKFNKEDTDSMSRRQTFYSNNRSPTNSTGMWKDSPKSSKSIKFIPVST
# T6 sequence (Q00788 whole entry): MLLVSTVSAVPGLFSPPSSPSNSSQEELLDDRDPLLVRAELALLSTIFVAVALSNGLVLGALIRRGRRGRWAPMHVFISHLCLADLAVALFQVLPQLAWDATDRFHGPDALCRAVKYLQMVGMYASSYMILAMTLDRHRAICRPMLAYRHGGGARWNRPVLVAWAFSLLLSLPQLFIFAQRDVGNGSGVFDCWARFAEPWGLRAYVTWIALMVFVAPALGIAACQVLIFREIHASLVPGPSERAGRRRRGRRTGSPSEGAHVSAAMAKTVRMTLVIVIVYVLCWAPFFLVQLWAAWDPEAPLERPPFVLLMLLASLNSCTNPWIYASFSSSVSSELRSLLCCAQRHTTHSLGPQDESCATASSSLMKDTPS
# T1 sequence (P30518 whole entry): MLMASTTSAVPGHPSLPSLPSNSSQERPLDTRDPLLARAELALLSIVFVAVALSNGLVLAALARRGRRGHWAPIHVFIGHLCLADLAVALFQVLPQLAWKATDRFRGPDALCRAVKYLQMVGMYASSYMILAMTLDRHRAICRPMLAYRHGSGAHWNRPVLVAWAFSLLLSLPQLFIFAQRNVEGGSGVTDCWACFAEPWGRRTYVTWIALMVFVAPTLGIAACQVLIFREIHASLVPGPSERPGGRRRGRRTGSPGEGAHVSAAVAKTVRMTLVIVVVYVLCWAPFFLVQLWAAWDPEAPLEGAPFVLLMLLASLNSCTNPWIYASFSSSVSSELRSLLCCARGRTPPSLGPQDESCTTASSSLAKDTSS
compound,measurement,setting,value
COc1cc(OC2CCN(C(C)=O)CC2)ccc1C(=O)N1CCC(N2C(=O)OCc3ccccc32)CC1,AD50,[1],2.5 mg/kg
same,AD50,[2],0.55 mg/kg
same,bioavailability,[3],13%
CC(C)C[C@@H]1C(=O)N[C@H](C2Cc3ccccc3C2)C(=O)N1[C@@H](C(=O)NC(C)C)c1ccc(N(C)C)cc1,Ki,[4],> 79400 nM
same,Ki,[5],> 50100 nM
same,Ki,[6],> 39800 nM
CC(C)C[C@@H]1C(=O)N[C@H](C2Cc3ccccc3C2)C(=O)N1[C@@H](C(=O)NC(C)C)c1ccc(F)cc1,Ki,[4],1260 nM
same,Ki,[5],> 6310 nM
same,Ki,[6],> 6310 nM
same,Ratio Ki,[7],> 1500
same,Ratio Ki,[8],> 1500
same,Ratio Ki,[9],> 300
Cc1ccc(S(=O)(=O)N2CCC3(C=Cc4ccccc43)CC2)cc1,Ki,[10],1000 nM
same,Ki,[11],9800 nM
same,Ki,[12],> 40000 nM
CC(C)C[C@@H]1C(=O)N[C@H](C2Cc3ccccc3C2)C(=O)N1[C@@H](C(=O)NC(C)C)c1ccc(F)cc1F,Ki,[5],> 6310 nM
same,Ki,[6],6310 nM
CN(C)CCCNC(=O)CCc1ccc(S(=O)(=O)N(CC(=O)N/N=C2\C(=O)Nc3ccccc32)c2ccc(Cl)cc2)cc1,Ki,[13],377 nM
same,ED50,[14],1.4 mg/kg
same,inhibition in vivo at 30 mg/kg,[15],35%
same,Ratio Ki,[7],23000
same,inhibition in vivo at 30 mg/kg,[16],35%
same,Ratio Ki,[8],60
same,Ratio Ki,[9],580
CCN(Cc1cccnc1)C(=O)c1ccc(Cl)c([C@]2(C)C(=O)N(Cc3ccc(OC)cc3OC)c3ccc(Cl)cc32)c1,Ki,[17],> 1000 nM
same,Kb,[18],3.39 nM
same,Ki,[19],143 nM
same,Ki,[20],1.6 nM
same,Ki,[21],99 nM
same,Ki,[22],> 1000 nM
same,IC50,[23],0.5 nM
CC1(C)[C@@H]2CC[C@@]1(CS(=O)(=O)N1CCC3(C=Cc4ccccc43)CC1)[C@@](O)(CC(=O)O)C2,AD50,[1],30 mg/kg
same,Ki,[24],5600 nM
same,Ki,[25],1600 nM
same,AD50,[2],10 mg/kg
same,Ki,[10],530 nM
same,Ki,[26],370 nM
same,Ki,[11],26000 nM
same,Ki,[12],29000 nM
same,Ratio Ki,[8],3
same,Ratio Ki,[9],11
CCOc1ccc(S(=O)(=O)N(CC(=O)NN=C2C(=O)Nc3ccccc32)c2ccc(C)cc2)cc1,Ki,[13],2500 nM
same,solubility,[27],< 1 µg/mL
same,Ki,[28],25 nM
O=C(Cn1cc(C(F)(F)F)ccc1=O)NCc1cc2cc(C(=O)N3CCC(N4C(=O)OCc5ccccc54)CC3)ccc2o1,Ki,[24],> 3000 nM
same,bioavailability,[29],51%
same,Ratio Ki,[8],630
same,Ratio Ki,[9],> 1500
COCc1nnc(N2CC(Oc3ccc(F)cc3Cl)C2)n1-c1ccc(OC)nc1,Ki,[13],> 10000 nM
same,Activity,[30],0.3 mg
same,clearance,[31],8 mL/min/kg
same,clearance,[32],36 mL/min/kg
same,half-life,[33],12 h
same,Ratio Ki,[8],118
same,solubility,[34],59 µg/mL
same,bioavailability,[35],80%
same,clearance,[36],> 8 mL/min/kg
same,Ratio Ki,[9],1050
Cc1ccccc1N1CCN(S(=O)(=O)C[C@]23CC[C@H](C[C@@H]2NC(=O)[C@@H](N)CCS(C)(=O)=O)C3(C)C)CC1,AD50,[1],7 mg/kg
same,Ki,[24],590 nM
same,Ki,[25],180 nM
same,solubility,[37],2.5 mg/kg
same,AD50,[2],0.35 mg/kg
same,Ki,[10],13 nM
same,bioavailability,[38],35%
same,Ki,[26],3.6 nM
same,bioavailability,[29],21%
same,Ki,[11],110 nM
same,Ki,[12],200 nM
same,Ratio Ki,[8],14
same,bioavailability,[35],20%
same,Ratio Ki,[9],45
same,bioavailability,[39],25%
